Paper PMC11597697, “Chemical Composition and Bioactivity Dataset Integration to Identify Antiproliferative Compounds in Phyllanthus Plants” (Pharmaceutics, 2024)
Read-outs that look alike come from different tables or passages of the source.

Key:
[1] = system: PC-3 (prostate adenocarcinoma); experiment: Antiproliferative MTT assay, PC-3; format: cell-based; settings: Homo sapiens, read-out: IC50 PC-3
Experimental: (§1) Human cancer cell lines—prostatic adenocarcinoma (PC-3, ATCC CRL-7934), lung adenocarcinoma (A549, ATCC CCL-185), and cervical carcinoma (SiHa, ATCC HTB-35)—along with normal mouse fibroblasts (L929, ATCC CRL-6364) were cultured as monolayers in Dulbecco’s Modified Eagle Medium (DMEM) supplemented with 10% (v/v) fetal bovine serum (FBS), 1% (v/v) penicillin, and 1% (v/v) streptomycin. These cultures were maintained at 37 °C in a humidified atmosphere with 5% CO2. The antiproliferative effects of Phyllanthus-derived extracts and isolated compounds were evaluated using a previously described method. Cells were seeded at 5 × 10^3/well in 96-well plates (100 µL) and incubated for 24 h. After incubation, the medium was replaced with 100 µL of serum-free medium containing varying concentrations of the treatments (0.5–250 µg/mL for extracts and 0.01–100 µg/mL for pure compounds). Each treatment was tested in triplicate. Controls included a PBS-containing medium as a blank, 1% (w/v) bovine serum albumin-amended medium as a negative control (100% survival), and podophyllotoxin (0.16–100 µg/mL) as a positive control. After 48 h of treatment, cell viability was determined by adding 10 µL of MTT (5 mg/mL) to each well, followed by a 3-h incubation under the same culture conditions. The resulting formazan crystals were dissolved in 100 µL of DMSO, and absorbance was measured at 570 nm using a Varioskan LUX 96-well plate reader (Thermo Fisher Scientific, Waltham, MA, USA). The antiproliferative effects were quantified as the half-maximal inhibitory concentration (IC50) in µg/mL for extracts and µM for pure compounds. Dose–response curves were used to determine IC50 values from non-linear regression using GraphPad 7.0 (GraphPad, San Diego, CA, USA).

[2] = system: L929 (murine fibroblasts); experiment: Antiproliferative MTT assay, normal fibroblasts L929; format: cell-based, mouse; settings: for IC50: Mus musculus, read-out: IC50 L929
Experimental: as §1

A549 (lung carcinoma) = experiment: Antiproliferative MTT assay, A549; format: cell-based; settings: Homo sapiens, read-out: IC50 A549
Experimental: as §1

[3] = system: SiHa (cervical carcinoma); experiment: Antiproliferative MTT assay, SiHa; format: cell-based; settings: Homo sapiens
Experimental: as §1

[4] = pure compounds, 48 h treatment, MTT
[5] = L929, pure compounds, 48 h treatment, MTT, normal cell line
[6] = A549, pure compounds, 48 h treatment, MTT
[7] = pure compounds, 48 h treatment, MTT, read-out: IC50 SiHa

SMILES: COc1cc(C=C2C(=O)OCC2Cc2ccc(O)c(OC)c2)ccc1O (single isomer, unassigned; (+)) [Compound 2, (+)-acutissimalignan B]
- IC50 [1, 4]: 6.55 µM
- IC50 [2, 5]: > 100 µM
- IC50 L929 ([2]; pure compounds, 48 h treatment, MTT, normal cell line): no observed cytotoxicity
- IC50 (A549 (lung carcinoma); [6]): 78.6 µM
- IC50 [3, 7]: 56.8 µM

SMILES: COc1cc(-c2c3c(c(OC)c4cc5c(cc24)OCO5)C(OC(C)=O)OC3=O)cc2c1OCO2 (single isomer, unassigned; (+)) [Compound 6, (+)-5-methoxy-9-(7-methoxybenzo[d][1,3]dioxol-5-yl)-8-oxo-6,8-dihydrofuro[3′,4′:6,7]naphtho[2,3-d][1,3]dioxol-6-yl acetate]
- IC50 ([1]; 48 h): 15.3 µM
- IC50 ([2]; L929, 48 h): 86.3 µM
- IC50 (A549 (lung carcinoma); A549, 48 h): 26.5 µM
- IC50 ([3]; 48 h, read-out: IC50 SiHa, pure compounds, 48 h treatment, MTT): 3.62 µM

SMILES: COc1cc2c(OC)c3c(c(-c4ccc5c(c4)OCO5)c2cc1O)C(=O)OC3 [Compound 3, phyllanthusmin A]
- IC50 [1, 4]: 16.3 µM
- IC50 [2, 5]: 92.3 µM
- IC50 (A549 (lung carcinoma); [6]): 93.2 µM
- IC50 [3, 7]: 8.61 µM

SMILES: O=C1OC[C@H](Cc2ccc3c(c2)OCO3)[C@H]1Cc1ccc2c(c1)OCO2 [Compound 4, (−)-hinokinin]
- IC50 [1, 4]: 4.55 µM
- IC50 [2, 5]: 76.3 µM
- IC50 (A549 (lung carcinoma); [6]): 12.3 µM
- IC50 [3, 7]: 61.2 µM

SMILES: COc1cc2c(OC)c3c(c(-c4ccc5c(c4)OCO5)c2cc1OC)C(=O)OC3 [Compound 5, justicidin A]
- IC50 [1, 4]: 17.6 µM
- IC50 [2, 5]: > 100 µM
- IC50 (A549 (lung carcinoma); [6]): 50.3 µM
- IC50 [3, 7]: 6.53 µM

SMILES: COc1cc2c(OC)c3c(c(-c4ccc5c(c4)OCO5)c2cc1OC)C(=O)OC3OC (centres unmarked) [Compound 7, justicidin P]
- IC50 [1, 4]: 15.2 µM
- IC50 [2, 5]: > 100 µM
- IC50 (A549 (lung carcinoma); [6]): 45.3 µM
- IC50 [3, 7]: 5.23 µM

SMILES: COc1cc([C@@H]2c3cc4c(cc3[C@H](O)[C@H]3COC(=O)[C@H]23)OCO4)cc(OC)c1OC [ppt, podophyllotoxin, reference compound]
- IC50 ([1]; 48 h): 2.22 µM
- IC50 ([2]; L929, 48 h): 2.53 µM
- IC50 (A549 (lung carcinoma); A549, 48 h): 4.82 µM
- IC50 ([3]; 48 h, read-out: IC50 SiHa): 1.85 µM
